Assay results as given in patent US11464749B2, “Bismuth-thiol compositions and methods of use” (Microbion Corporation, priority 2018, dated 2022).
≈ marks a conversion by molar mass, not a printed value. Like-named read-outs stand apart in the source and are kept apart here.

How the values were obtained:
Escherichia coli [1] = conditions: E. coli MMX 102 (ATCC 25922); CLSI QC ranges shown in parenthesis; cited from earlier work
Pseudomonas aeruginosa [2] = conditions: P. aeruginosa MMX 103 (ATCC 27853); CLSI QC ranges shown in parenthesis; cited from earlier work
Escherichia coli [3] = experiment: Broth microdilution MIC (Example 11)
Klebsiella pneumoniae = experiment: Broth microdilution MIC (Example 11)
Enterobacter cloacae = experiment: Broth microdilution MIC (Example 11); conditions: ATCCBAA2468
Pseudomonas aeruginosa [4] = experiment: Broth microdilution MIC (Example 11)
Acinetobacter baumannii = experiment: Broth microdilution MIC (Example 11)
[5] = tested on: Staphylococcus aureus (MRSA); experiment: Broth microdilution MIC (Example 11)
E. faecalis = experiment: Broth microdilution MIC (Example 11); conditions: VRE Lev^R Cip^R Ery^R
S. pneumoniae = experiment: Broth microdilution MIC (Example 11); conditions: Streptococcus pneumoniae
S. pyogenes = experiment: Broth microdilution MIC (Example 11); conditions: Streptococcus pyogenes
S. agalactiae = experiment: Broth microdilution MIC (Example 11); conditions: Streptococcus agalactiae
[6] = tested on: vancomycin-intermediate Staphylococcus aureus (VISA); experiment: Broth microdilution MIC (Example 12); conditions: Staphylococcus aureus, NRS13 / VISA, read-out: MIC values
Haemophilus influenzae = experiment: Broth microdilution MIC against Haemophilus influenzae clinical isolates; conditions: Haemophilus influenzae
M. abscessus complex = experiment: MIC against CF bacterial strains (Example 5); type: cell-based, Mycobacterium abscessus; conditions: Mycobacteroides abscessus, read-out: MIC
Description: A range of CF-isolated strains of Mycobacterium avium and Mycobacterium abscessus were included; which allows for understanding of the activity against non-tubercular Mycobacteria (NTM). Two distinct bismuth-thiol compounds were evaluated, including BisEDT and BisBDT. […] The CF-isolates of greater clinical relevance, including both M abscessus spp. and Burkholderia spp., were both consistently found to be much more susceptible to BisEDT and BisBDT.

S. aureus ATCC 29213 = conditions: control strain ATCC 29213; per CLSI M100-S24 or provided by Microbion; cited from earlier work
E. faecium = experiment: Broth microdilution MIC (Example 11); conditions: VRE vanA Lev^R Cip^R Ery^R

C[C@H]1COc2c(N3CCN(C)CC3)c(F)cc3c(=O)c(C(=O)O)cn1c23 [Levofloxacin, reference compound]
CLSI QC range of MIC (Escherichia coli [1]): (0.008-0.06)^1 μg/mL
CLSI QC range of MIC (Pseudomonas aeruginosa [2]): (0.5-4) μg/mL
MIC (Escherichia coli [3]; ATCC25922, E. coli MMX 102 (ATCC 25922), QC): 0.015 µg/mL (≈ 0.0415 µM)
MIC (Escherichia coli [3]; ATCCBAA2469, E. coli MMX 5980 (ATCC BAA-2469), NDM-1, Lev^R, MEM^R, CAZ^R, Gm^R): 16 µg/mL (≈ 44.3 µM)
MIC (Escherichia coli [3]; E. coli MMX 8423, ESBL, Lev^R, CAZ^R, Gm^R): 16 µg/mL (≈ 44.3 µM)
MIC (Escherichia coli [3]; E. coli MMX 8424, ESBL, CAZ^R): 0.06 µg/mL (≈ 0.166 µM)
MIC (Escherichia coli [3]; E. coli MMX 8425, ESBL, Lev^R, CAZ^R, Gm^R): 16 µg/mL (≈ 44.3 µM)
MIC (Klebsiella pneumoniae; K. pneumoniae MMX 4622, KPC-2, MEM^R, CAZ^R): 1 µg/mL (≈ 2.77 µM)
MIC (Klebsiella pneumoniae; K. pneumoniae MMX 4623, KPC-2, MEM^R, CAZ^R, GM^R): 1 µg/mL (≈ 2.77 µM)
MIC (Klebsiella pneumoniae; K. pneumoniae MMX 4653, KPC-3, Lev^R, MEM^R, CAZ^R): 64 µg/mL (≈ 177 µM)
MIC (Klebsiella pneumoniae; K. pneumoniae MMX 4683, KPC-2, Lev^R, MEM^R, CAZ^R): > 64 µg/mL
MIC (Klebsiella pneumoniae; K. pneumoniae MMX 4684, ESBL, MEM^R): 0.03 µg/mL (≈ 0.083 µM)
MIC (Klebsiella pneumoniae; K. pneumoniae MMX 4685, ESBL, Lev^R, MEM^R, CAZ^R): 32 µg/mL (≈ 88.6 µM)
MIC (Klebsiella pneumoniae; K. pneumoniae MMX 4694, KPC-3, Lev^R, MEM^R, CAZ^R): 64 µg/mL (≈ 177 µM)
MIC (Klebsiella pneumoniae; K. pneumoniae MMX 5979, NDM-1, Lev^R, MEM^R, CAZ^R, Gm^R): > 64 µg/mL
MIC (Enterobacter cloacae): 64 µg/mL (≈ 177 µM)
MIC (Pseudomonas aeruginosa [4]; Pseudomonas aeruginosa, ATCC27853, P. aeruginosa MMX 103 (ATCC 27853), QC): 1 µg/mL (≈ 2.77 µM)
MIC (Pseudomonas aeruginosa [4]; Pseudomonas aeruginosa, P. aeruginosa MMX 1381, MDR, Lev^R, Cip^R, MEM^R, CAZ^R): 64 µg/mL (≈ 177 µM)
MIC (Pseudomonas aeruginosa [4]; Pseudomonas aeruginosa, P. aeruginosa MMX 2562, MDR, Lev^R, Cip^R, MEM^R, CAZ^R): 64 µg/mL (≈ 177 µM)
MIC (Pseudomonas aeruginosa [4]; Pseudomonas aeruginosa, P. aeruginosa MMX 3991, MDR, Lev^R, Cip^R, MEM^R, CAZ^R): 64 µg/mL (≈ 177 µM)
MIC (Pseudomonas aeruginosa [4]; Pseudomonas aeruginosa, P. aeruginosa MMX 4654, IMP-7, Lev^R, Cip^R, MEM^R, CAZ^R): 64 µg/mL (≈ 177 µM)
MIC (Pseudomonas aeruginosa [4]; Pseudomonas aeruginosa, P. aeruginosa MMX 4697, VIM-2, Lev^R, Cip^R, MEM^R, CAZ^R): 32 µg/mL (≈ 88.6 µM)
MIC (Acinetobacter baumannii; Acinetobacter baumannii, A. baumannii MMX 2592, MDR, Lev^R, Cip^R, MEM^R, CAZ^R, Gm^R): 64 µg/mL (≈ 177 µM)
MIC (Acinetobacter baumannii; Acinetobacter baumannii, A. baumannii MMX 2593, MDR, Lev^R, Cip^R, MEM^R, CAZ^R, Gm^R): 32 µg/mL (≈ 88.6 µM)
MIC (Acinetobacter baumannii; Acinetobacter baumannii, A. baumannii MMX 3372, MDR, Cip^R, MEM^I, CAZ^I): 1 µg/mL (≈ 2.77 µM)
MIC (Acinetobacter baumannii; Acinetobacter baumannii, A. baumannii MMX 3373, Sensitive): 0.12 µg/mL (≈ 0.332 µM)
MIC (Acinetobacter baumannii; Acinetobacter baumannii, NCTC13304, A. baumannii MMX 4651 (NCTC 13304), MDR, OXA-27, Lev^R, Cip^R, MEM^R, CAZ^R, Gm^I): 8 µg/mL (≈ 22.1 µM)
MIC ([5]; ATCC29213|MRSA|MSSA, S. aureus MMX 101 (ATCC 29213), QC, MSSA): 0.12 µg/mL (≈ 0.332 µM)
MIC ([5]; MRSA, S. aureus MMX 5373, MRSA Lev^R Cip^R CC^R Ery^R Ox^R): 32 µg/mL (≈ 88.6 µM)
MIC ([5]; MRSA, S. aureus MMX 6311, MRSA Lev^R Cip^R CC^R Ery^R Ox^R): 32 µg/mL (≈ 88.6 µM)
MIC ([5]; MRSA, S. aureus MMX 9203, MRSA Lev^R Cip^R Ery^R Ox^R): 4 µg/mL (≈ 11.1 µM)
MIC ([5]; MRSA, S. aureus MMX 9204, MRSA Lev^R Cip^R Ery^R Ox^R): 4 µg/mL (≈ 11.1 µM)
MIC ([5]; MRSA, S. aureus MMX 9205, MRSA Lev^R Cip^R CC^R Ery^R Ox^R): > 64 µg/mL
MIC (E. faecalis; Enterococcus faecalis, VRE, E. faecalis MMX 8960): 32 µg/mL (≈ 88.6 µM)
MIC (E. faecalis; Enterococcus faecalis, VRE, E. faecalis MMX 8961): 64 µg/mL (≈ 177 µM)
MIC (E. faecalis; Enterococcus faecalis, VRE, E. faecalis MMX 8962): 64 µg/mL (≈ 177 µM)
MIC (S. pneumoniae; ATCC49619, S. pneumoniae MMX 6837 (ATCC 49619), QC): 0.5 µg/mL (≈ 1.38 µM)
MIC (S. pneumoniae; S. pneumoniae MMX 880, Lev^R SXT^R CC^R Ery^R Pen^R): 8 µg/mL (≈ 22.1 µM)
MIC (S. pneumoniae; S. pneumoniae MMX 937, Mem^R SXT^R CC^R Ery^R Pen^R): 1 µg/mL (≈ 2.77 µM)
MIC (S. pneumoniae; S. pneumoniae MMX 3959, CC^R Ery^R): 1 µg/mL (≈ 2.77 µM)
MIC (S. pneumoniae; S. pneumoniae MMX 5440, Mem^R SXT^R CC^R Ery^R Pen^R): 1 µg/mL (≈ 2.77 µM)
MIC (S. pneumoniae; S. pneumoniae MMX 5445, Mem^R SXT^R CC^R Ery^R Pen^R): 1 µg/mL (≈ 2.77 µM)
MIC (S. pneumoniae; S. pneumoniae MMX 8133, Mem^R SXT^R CC^R Ery^R Pen^R): 1 µg/mL (≈ 2.77 µM)
MIC (S. pyogenes; S. pyogenes MMX 3068, Ery^R): 0.5 µg/mL (≈ 1.38 µM)
MIC (S. pyogenes; S. pyogenes MMX 3820, ERY^R CLI^R): 0.25 µg/mL (≈ 0.692 µM)
MIC (S. pyogenes; S. pyogenes MMX 3919, ERY^R): 0.12 µg/mL (≈ 0.332 µM)
MIC (S. pyogenes; S. pyogenes MMX 3929, ERY^R CC^R): 0.5 µg/mL (≈ 1.38 µM)
MIC (S. pyogenes; S. pyogenes MMX 5091, ERY^R CC^R): 0.25 µg/mL (≈ 0.692 µM)
MIC (S. agalactiae; S. agalactiae MMX 3741, ERY^R CC^R): 0.5 µg/mL (≈ 1.38 µM)
MIC (S. agalactiae; S. agalactiae MMX 3743, ERY^R CC^R): 1 µg/mL (≈ 2.77 µM)
MIC (S. agalactiae; S. agalactiae MMX 4077, ERY^R CC^R): 0.5 µg/mL (≈ 1.38 µM)
MIC (S. agalactiae; S. agalactiae MMX 4079, ERY^R CC^R Pen^R MEM^R): 1 µg/mL (≈ 2.77 µM)
MIC (S. agalactiae; S. agalactiae MMX 4086, ERY^R CC^R): 0.5 µg/mL (≈ 1.38 µM)
MIC [6]: ≥ 4 µg/mL
MIC50 (Haemophilus influenzae): 0.015 µg/mL (≈ 0.0415 µM)
MIC90 (Haemophilus influenzae): 0.015 µg/mL (≈ 0.0415 µM)

CC[C@H]1OC(=O)[C@H](C)[C@@H](O[C@H]2C[C@@](C)(OC)[C@@H](O)[C@H](C)O2)[C@H](C)[C@@H](O[C@@H]2O[C@H](C)C[C@H](N(C)C)[C@H]2O)[C@](C)(OC)C[C@@H](C)C(=O)[C@H](C)[C@@H](O)[C@]1(C)O [Clarithromycin, reference compound]
MIC (M. abscessus complex; AMT0130-8, M abscessus/massiliense complex): 1 µg/mL (≈ 1.34 µM)
MIC (M. abscessus complex; AMT153-9, M abscessus/massiliense complex): 2 µg/mL (≈ 2.67 µM)
MIC (M. abscessus complex; AMT0493-2, M abscessus/massiliense complex, Amikacin resistant): 2 µg/mL (≈ 2.67 µM)
MIC (M. abscessus complex; ATCC19977, ATCC 19977, M abscessus/massiliense complex, Macrolide resistant (inducible)): > 32 µg/mL
Expected MIC: goal (acceptable range) (S. aureus ATCC 29213): 0.25 (0.12-0.5) mcg/mL

Gentamicin
CLSI QC range of MIC (Escherichia coli [1]): (0.25-1) μg/mL
CLSI QC range of MIC (Pseudomonas aeruginosa [2]): (0.5-2) μg/mL
MIC (Pseudomonas aeruginosa [4]; P. aeruginosa MMX 103 (ATCC 27853), QC): 1 µg/mL
MIC (Pseudomonas aeruginosa [4]; P. aeruginosa MMX 1381, MDR, Lev^R, Cip^R, MEM^R, CAZ^R): 8 µg/mL
MIC (Pseudomonas aeruginosa [4]; P. aeruginosa MMX 2562, MDR, Lev^R, Cip^R, MEM^R, CAZ^R): 8 µg/mL
MIC (Pseudomonas aeruginosa [4]; P. aeruginosa MMX 3991, MDR, Lev^R, Cip^R, MEM^R, CAZ^R): 4 µg/mL
MIC (Pseudomonas aeruginosa [4]; P. aeruginosa MMX 4654, IMP-7, Lev^R, Cip^R, MEM^R, CAZ^R): >64 µg/mL
MIC (Pseudomonas aeruginosa [4]; P. aeruginosa MMX 4697, VIM-2, Lev^R, Cip^R, MEM^R, CAZ^R): 4 µg/mL
MIC (Acinetobacter baumannii; A. baumannii MMX 2592, MDR, Lev^R, Cip^R, MEM^R, CAZ^R, Gm^R): >64 µg/mL
MIC (Acinetobacter baumannii; A. baumannii MMX 2593, MDR, Lev^R, Cip^R, MEM^R, CAZ^R, Gm^R): >64 µg/mL
MIC (Acinetobacter baumannii; A. baumannii MMX 3372, MDR, Cip^R, MEM^I, CAZ^I): 0.5 µg/mL
MIC (Acinetobacter baumannii; A. baumannii MMX 3373, Sensitive): 0.12 µg/mL
MIC (Acinetobacter baumannii; A. baumannii MMX 4651 (NCTC 13304), MDR, OXA-27, Lev^R, Cip^R, MEM^R, CAZ^R, Gm^I): 8 µg/mL
MIC (E. faecalis; E. faecalis MMX 8960): >64 µg/mL
MIC (E. faecalis; E. faecalis MMX 8961): 8 µg/mL
MIC (E. faecalis; E. faecalis MMX 8962): >64 µg/mL
MIC (E. faecium; E. faecium MMX 485): >64 µg/mL
MIC (E. faecium; E. faecium MMX 752): >64 µg/mL
